The source of these data is patent US20080076772A1, “Anti-Inflammatory Agents” (Pharma Mar S.A. Sociedad Unipersonal, priority 2004, published 2008).

Experiment [1] has as its system CCL2. In words: CCL2 production by LPS-stimulated monocytes (ELISA). It is filed as cell-based, human. To be noted: 24 h-incubation. Here is the method: Supernatants of untreated cells or cells treated with ecteinascidin 743 or other anti-neoplastic agents were collected after 24 h culture and frozen. Monocytes, macrophages and TAM were stimulated with 100 ng/ml LPS to induce maximal cytokine production. Determination of cytokines CCL2, TNF and IL-6 was measured by specific ELISA following the manufacturer's instructions.
Monocytes and in vitro differentiated macrophages were stimulated with LPS (100 ng/ml). After 1 h LPS stimulation they were treated with ecteinascidin 743. After 16 h incubation, cell supernatants were harvested and tested in ELISA. Under these treatment conditions cell viability was usually >85% for concentrations up to 5 nM. […] Mean inhibition at 5 nM, for monocytes, was 65% (range 50-80%, n=5) and was 50% (range 25-75%, n=5) for in vitro differentiated macrophages. Results are mean+/−SE of 3-5 experiments
Similar results were obtained when monocytes were stimulated with LPS (100 ng/ ml) and treated with ET743 and the other ecteinascidin compounds, although the overall inhibition was less marked compared with the previous experiment where the tumor supernantant was used as CCL2-inducing stimulus.
CCL2 and TNF production by LPS-stimulated monocytes treated with the indicated doses of the anti-tumor agents was also tested. Cell supernatants were harvested after 24 h-incubation and tested in ELISA. […] None of these compounds interfered with the production of TNF.
A major finding of our work is the inhibitory activity of ecteinascidin 743 on the production of inflammatory cytokines. Among various inflammatory cytokines produced by monocyte/macrophages we have tested IL-6, TNF and the chemokine CCL2. CCL2 is a chemokine attracting monocytes and other leukocyte subsets, and is produced both by monocyte/macrophages and several tumour cells. It has been described that ovarian adenocarcinoma cells produce huge amounts of CCL2 and that their levels correlate with the macrophage content of tumours. CCL2 is therefore one of the most important factors regulating monocyte/macrophages recruitment at the tumour site. […] Thus, lower levels of CCL2 by TAM and tumour cells are likely to reduce the number of macrophages recruited at the tumour site. In the above described in vitro experiments ecteinascidin 743 was present throughout the 16-h culture period. We also checked whether a shorter in vitro exposure to ecteinascidin 743 was sufficient to affect cytokine production. Monocytes exposed to ecteinascidin 743 were washed after 1 hour culture and replaced in fresh medium.

Experiment [2] deals with CCL2. Put plainly: CCL2 production induced by exposure of monocytes to tumor cell supernatants. The format is cell-based, human. On the procedure:
We also tested five other ecteinascidin compounds (Table 2) for their capacity to inhibit the production of CCL2 by human monocytes in vitro. […] The extent of inhibition of ET637 Derivative A was even more pronouced compared to ET743. In Table 2 is shown that the production of CCL2, induced by exposure of monocytes to tumor cell supernatants, is inhibited up to 80% and 97% at 2.5 and 5 nM, respectively, in two different donors. In the same experiment ET743 inhibited between 30% and 70%.

Experiment [3] relates to blood monocytes. In words: in vitro. To be noted: 48 h. On the procedure: Purified populations of human blood monocytes were prepared as previously described by differential density centrifugation on Ficoll and Percoll gradients (see Allavena, P., Piemonti, L., Longoni, D., Bernasconi, S., Stoppacciaro, A., Ruco, L., and Mantovani, A. IL-10 prevents the differentiation of monocytes to dendritic cells but promotes their maturation to macrophages. Eur J Immunol, 28: 359-369, 1998). […] Human thymocytes were isolated from resected thymus from pediatric patients undergoing surgery. Thymocytes were obtained by teasing and isolated on Percoll gradient.
Cells were cultured at 10^6 cells/ml in complete medium RPMI (Biochrom, Berlin, FRG)+10% FCS (Hyclone, Logan, Utah). In vitro differentiated macrophages were obtained by culture of monocytes Monocyte-Colony Stimulating Factor (M-CSF) Peprotech (20 ng/ml), for 5 days. In some experiments, macrophages were treated with LPS (100 ng/ml) Sigma Aldrich, IFN gamma (500 IU/ml) or IL-4 (20 ng/ml) (Schering Plough) for 24 h.
Cell viability was analyzed by DNA content in Flow Cytometry
Cells exposed to treatments were fixed with ethanol 70%, washed in PBS and stained with propidium iodide (PI) solution containing 10 ug/ml PI in PBS and 25 μl RNAse 10,000 units, overnight in the dark. PI incorporation was evaluated on at least 20,000 cells/sample using a FACS Calibur instrument (Becton Dickinson, Sunnyvale, Calif., USA), with a bandpass filter at 620 nm. Apoptosis was detected by staining with AnnexinV and PI. FACS analysis was performed using a bandpass filter 530 and 620 nm for green (AnnexinV) and red (PI) fluorescence respectively, in combination with a […] dichroic mirror.
Purified preparations of blood monocytes, lymphocytes and thymocytes were cultured with different concentrations of ecteinascidin 743 for 48 h. Cell viability was assessed by DNA analysis and propidium iodide (PI) staining in Flow cytometry.
A kinetics analysis of the cytotoxic effect of ecteinascidin 743 was performed in the presence of M-CSF. Cells were treated with M-CSF (20 ng/ml) and different concentrations of ecteinascidin 743. Samples were collected at the indicated times and tested for DNA analysis.
Viability was assessed by PI staining and analyzed by Flow Cytometry.

With `COc1cccc2c1C(=O)c1c(O)c3c(c(O)c1C2=O)C[C@@](O)(C(=O)CO)C[C@@H]3O[C@H]1C[C@H](N)[C@H](O)[C@H](C)O1` [Doxorubicin, reference compound], the “effect on CCL2 production by LPS-stimulated monocytes” value (shortened to “effect on CCL2 production”) in experiment [1] (indicated doses (FIG. 9B)) is “ineffective”.

Turning to `COc1c(C)cc2c(c1O)C1C3[C@@H]4SCC(=O)C(=O)OC[C@@H](c5c6c(c(C)c(OC(C)=O)c54)OCO6)N3[C@@H](O)[C@H](C2)N1C` (some centres unmarked) [ET594], the “% inhibition of CCL2 production, Donor A” value in experiment [2] (5 nM) and in experiment [2] (10 nM) was 25% throughout.

One may read the inhibition as the drop in the measured response relative to a control, in per cent. Turning to `COc1cc2c(cc1O)CCN[C@]21CS[C@@H]2c3c(OC(C)=O)c(C)c4c(c3[C@H](COC1=O)N1C[C@@H]3Cc5cc(C)c(OC)c(O)c5[C@H]([C@H]21)N3C)OCO4` [ET745], the inhibition at 0.005 µM in experiment [2] (Homo sapiens, Monocyte, read-out: % inhibition of CCL2 production, Donor A) came out at 23%.

Consider `N.N.[Cl][Pt][Cl]` [Cisplatin, reference compound], for which the toxicity on monocytes result in experiment [3] (very high concentrations (40 μM)) was “Significant toxicity”. The “effect on CCL2 production” value in experiment [1] (10 μM) is on record as “reduced CCL2 production”.

Take `CC(=O)O[C@H]1C(=O)[C@@]2(C)[C@H]([C@H](OC(=O)c3ccccc3)[C@]3(O)C[C@H](OC(=O)[C@H](O)[C@@H](NC(=O)c4ccccc4)c4ccccc4)C(C)=C1C3(C)C)[C@]1(OC(C)=O)CO[C@@H]1C[C@@H]2O` [Taxol, reference compound]: the toxicity on monocytes entry in experiment [3] (300 nM) is on record as “ineffective”. In experiment [1] (indicated doses (FIG. 9B)), the “effect on CCL2 production” value is given as “ineffective”.
